Consider one compound from ChEMBL document CHEMBL1138755, “A peptide nucleic acid-neamine conjugate that targets and cleaves HIV-1 TAR RNA inhibits viral replication” (J Med Chem, 2004).

Molecules are shown by their SMILES.

For the assay, the system named is Human immunodeficiency virus 1. Description: Ability of the conjugate to block HIV-1 production when supplemented in a culture medium; NI= No inhibition of the HIV-1 replication even at concentration >5 uM. The assay is classed as functional, organism-based.

`NC[C@H]1O[C@H](O[C@H]2[C@H](O)[C@@H](O)[C@H](N)C[C@@H]2N)[C@H](N)[C@@H](O)[C@@H]1O`: the inhibition result is “No inhibition”.
